The assay concerns the target T1, human TGR5 (Homo sapiens, UniProt Q8TDU6).
T1 construct: expressed in transfected cells; host or cells: HEK293
T1 sequence (Q8TDU6 1-330): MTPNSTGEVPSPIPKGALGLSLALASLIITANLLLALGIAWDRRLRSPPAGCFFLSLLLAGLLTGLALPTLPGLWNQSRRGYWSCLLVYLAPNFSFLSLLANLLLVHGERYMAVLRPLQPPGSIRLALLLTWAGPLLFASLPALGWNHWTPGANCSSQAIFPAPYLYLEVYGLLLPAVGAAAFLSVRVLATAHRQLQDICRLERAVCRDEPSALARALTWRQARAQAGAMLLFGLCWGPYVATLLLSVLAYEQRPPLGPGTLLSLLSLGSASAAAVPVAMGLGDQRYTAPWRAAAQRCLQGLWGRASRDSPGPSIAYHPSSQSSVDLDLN
The assay can be described thus: Cell-based TGR5 assay (cAMP generation, HTRF). The following applies: HEK293 cells stably transfected with human TGR5; cAMP by HTRF; 30 minutes at 37° C.; read-out: pEC50 Human TGR5 (converted). Summed up:
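Read-out was HTRF detection of cAMP, converted to concentration via a standard curve and fitted (3-parameter logistic) for pEC50 and maximal response. Agonist stimulation used HEK293 cells stably transfected with human TGR5, incubated 30 min at 37° C in IBMX-containing buffer at 0.05 nM to 10 μM compound.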
(In TR-FRET formats the signal depends on donor and acceptor labels being close together.)
Consider `Cc1ccc(SCCCN(C(=O)[C@@H](O)[C@@H](O)[C@H](O)[C@@H](O)CO)C2CCOCC2)cc1CNC1(c2cnccc2-c2ccccc2OC2CC2)CC1` [Compound I-547, (2S,3S,4R,5S)-N-[3-({3-[({1-[4-(2-cyclopropoxyphenyl)pyridin-3-yl]cyclopropyl}amino)methyl]-4-methylphenyl}sulfanyl)propyl]-2,3,4,5,6-pentahydroxy-N-(oxan-4-yl)hexanamide], for which the EC50 was 1260 to 10000 nM.

For the compound `Cc1ccc(SCCCCN(CCCS(C)(=O)=O)C(=O)[C@@H](O)[C@@H](O)[C@H](O)[C@@H](O)CO)cc1CNC1(c2cnccc2-c2ccccc2OC2CC2)CC1` [Compound I-548, (2S,3S,4R,5S)-N-[4-({3-[({1-[4-(2-cyclopropoxyphenyl)pyridin-3-yl]cyclopropyl}amino)methyl]-4-methylphenyl}sulfanyl)butyl]-2,3,4,5,6-pentahydroxy-N-(3-methanesulfonylpropyl) hexanamide], the EC50 is 126 to 1000 nM.

`Cc1ccc(SCCCCN(CCOCCO)C(=O)[C@@H](O)[C@@H](O)[C@H](O)[C@@H](O)CO)cc1CNC1(c2cnccc2-c2ccccc2OC2CC2)CC1` [Compound I-549, (2S,3S,4R,5S)-N-[4-({3-[({1-[4-(2-cyclopropoxyphenyl)pyridin-3-yl]cyclopropyl}amino)methyl]-4-methylphenyl}sulfanyl)butyl]-2,3,4,5,6-pentahydroxy-N-[2-(2-hydroxyethoxy)ethyl]hexanamide]: the EC50 is less than 100 nM.

As for `Cc1ccc(SCCCCN(CCCCO)C(=O)[C@@H](O)[C@@H](O)[C@H](O)[C@@H](O)CO)cc1CNC1(c2cnccc2-c2ccccc2OC2CC2)CC1` [Compound I-550, (2S,3S,4R,5S)-N-[4-({3-[({1-[4-(2-cyclopropoxyphenyl)pyridin-3-yl]cyclopropyl}amino)methyl]-4-methylphenyl}sulfanyl)butyl]-2,3,4,5,6-pentahydroxy-N-(4-hydroxybutyl)hexanamide], the EC50 is 126 to 1000 nM.

With `Cc1ccc(SCCCCN(CCOCCO)C(=O)[C@@H](O)[C@@H](O)[C@H](O)[C@@H](O)CO)cc1COC1(c2cnccc2-c2ccccc2OC2CC2)CC1` [Compound I-551, (2S,3S,4R,5S)-N-(4-{[3-({1-[4-(2-cyclopropoxyphenyl)pyridin-3-yl]cyclopropoxy}methyl)-4-methylphenyl]sulfanyl}butyl)-2,3,4,5,6-pentahydroxy-N-[2-(2-hydroxyethoxy)ethyl]hexanamide], the EC50 is 126 to 1000 nM.

In the case of `O=C([C@@H](O)[C@@H](O)[C@H](O)[C@@H](O)CO)N(CCCSc1ccc(Cl)c(CNC2(c3cnccc3-c3ccccc3OC3CC3)CC2)c1)C1CCS(=O)(=O)CC1` [Compound I-552, (2S,3S,4R,5S)-N-[3-({4-chloro-3-[({1-[4-(2-cyclopropoxyphenyl)pyridin-3-yl]cyclopropyl}amino)methyl]phenyl}sulfanyl)propyl]-N-(1,1-dioxo-1λ^6-thian-4-yl)-2,3,4,5,6-pentahydroxyhexanamide], the EC50 was 1260 to 10000 nM.

Regarding `O=C([C@@H](O)[C@@H](O)[C@H](O)[C@@H](O)CO)N(CCCSc1ccc(Cl)c(CNC2(c3cnccc3-c3ccccc3OC3CC3)CC2)c1)CC1CCOCC1` [Compound I-553, (2S,3S,4R,5S)-N-[3-({4-chloro-3-[({1-[4-(2-cyclopropoxyphenyl)pyridin-3-yl]cyclopropyl}amino)methyl]phenyl}sulfanyl)propyl]-2,3,4,5,6-pentahydroxy-N-(oxan-4-ylmethyl)hexanamide], the EC50 was 126 to 1000 nM.

Regarding `O=C1CCCN1CCCN(CCCCSc1ccc(Cl)c(CNC2(c3cnccc3-c3ccccc3OC3CC3)CC2)c1)C(=O)[C@@H](O)[C@@H](O)[C@H](O)[C@@H](O)CO` [Compound I-554, (2S,3S,4R,5S)-N-[4-({4-chloro-3-[({1-[4-(2-cyclopropoxyphenyl)pyridin-3-yl]cyclopropyl}amino)methyl]phenyl}sulfanyl)butyl]-2,3,4,5,6-pentahydroxy-N-[3-(2-oxopyrrolidin-1-yl)propyl]hexanamide], the EC50 was 126 to 1000 nM.

For the compound `CN(CCSc1ccc(Cl)c(COC2(c3cnccc3-c3ccccc3OC3CC3)CC2)c1)C(=O)[C@@H](O)[C@@H](O)[C@H](O)[C@@H](O)CO` [Compound I-555, (2S,3S,4R,5S)-N-(2-{[4-chloro-3-({1-[4-(2-cyclopropoxyphenyl)pyridin-3-yl]cyclopropoxy}methyl)phenyl]sulfanyl}ethyl)-2,3,4,5,6-pentahydroxy-N-methylhexanamide], the EC50 is less than 100 nM.

As for `O=C([C@@H](O)[C@@H](O)[C@H](O)[C@@H](O)CO)N(CCCSc1ccc(Cl)c(COC2(c3cnccc3-c3ccccc3OC3CC3)CC2)c1)C1CCS(=O)(=O)CC1` [Compound I-556, (2S,3S,4R,5S)-N-(3-{[4-chloro-3-({-[4-(2-cyclopropoxyphenyl)pyridin-3-yl]cyclopropoxy}methyl)phenyl]sulfanyl}propyl)-N-(1,1-dioxo-1λ^6-thian-4-yl)-2,3,4,5,6-pentahydroxyhexanamide], the EC50 was 126 to 1000 nM.

Consider `O=C([C@@H](O)[C@@H](O)[C@H](O)[C@@H](O)CO)N(CCCCSc1ccc(Cl)c(CNC2(c3cnccc3-c3ccccc3OC3CC3)CC2)c1)CCN1CCS(=O)(=O)CC1` [Compound I-557, (2S,3S,4R,5S)-N-[4-({4-chloro-3-[({1-[4-(2-cyclopropoxyphenyl)pyridin-3-yl]cyclopropyl}amino)methyl]phenyl}sulfanyl)butyl]-N-[2-(1,1-dioxo-1λ^6,4-thiomorpholin-4-yl)ethyl]-2,3,4,5,6-pentahydroxyhexanamide], for which the EC50 was 126 to 1000 nM.

Consider `CS(=O)(=O)CCCN(CCCSc1ccc(Cl)c(COC2(c3cnccc3-c3ccccc3OC3CC3)CC2)c1)C(=O)[C@@H](O)[C@@H](O)[C@H](O)[C@@H](O)CO` [Compound I-558, (2S,3S,4R,5S)-N-(3-{[4-chloro-3-({1-[4-(2-cyclopropoxyphenyl)pyridin-3-yl]cyclopropoxy}methyl)phenyl]sulfanyl}propyl)-2,3,4,5,6-pentahydroxy-N-(3-methanesulfonylpropyl) hexanamide], for which the EC50 was 126 to 1000 nM.

Turning to `CS(=O)(=O)CCN(CCCCSc1ccc(Cl)c(COC2(c3cnccc3-c3ccccc3OC3CC3)CC2)c1)C(=O)[C@@H](O)[C@@H](O)[C@H](O)[C@@H](O)CO` [Compound I-559, (2S,3S,4R,5S)-N-(4-{[4-chloro-3-({1-[4-(2-cyclopropoxyphenyl)pyridin-3-yl]cyclopropoxy}methyl)phenyl]sulfanyl}butyl)-2,3,4,5,6-pentahydroxy-N-(2-methanesulfonylethyl)hexanamide], the EC50 is less than 100 nM.

Consider `Cc1ccc(SCCCCN(C(=O)[C@@H](O)[C@@H](O)[C@H](O)[C@@H](O)CO)C2CCOCC2)cc1CNC1(c2cnccc2-c2ccccc2OC2CC2)CC1` [Compound I-560, (2S,3S,4R,5S)-N-[4-({3-[({1-[4-(2-cyclopropoxyphenyl)pyridin-3-yl]cyclopropyl}amino)methyl]-4-methylphenyl}sulfanyl)butyl]-2,3,4,5,6-pentahydroxy-N-(oxan-4-yl)hexanamide], for which the EC50 was 126 to 1000 nM.

With `Cc1ccc(SCCCCN(CCCS(C)(=O)=O)C(=O)[C@@H](O)[C@@H](O)[C@H](O)[C@@H](O)CO)cc1COC1(c2cnccc2-c2ccccc2OC2CC2)CC1` [Compound I-561, (2S,3S,4R,5S)-N-(4-{[3-({1-[4-(2-cyclopropoxyphenyl)pyridin-3-yl]cyclopropoxy}methyl)-4-methylphenyl]sulfanyl}butyl)-2,3,4,5,6-pentahydroxy-N-(3-methanesulfonylpropyl)hexanamide], the EC50 is 126 to 1000 nM.

For the compound `Cc1ccc(SCCCCN(C(=O)[C@@H](O)[C@@H](O)[C@H](O)[C@@H](O)CO)C2CCOCC2)cc1COC1(c2cnccc2-c2ccccc2OC2CC2)CC1` [Compound I-562, (2S,3S,4R,5S)-N-(4-{[3-({1-[4-(2-cyclopropoxyphenyl)pyridin-3-yl]cyclopropoxy}methyl)-4-methylphenyl]sulfanyl}butyl)-2,3,4,5,6-pentahydroxy-N-(oxan-4-yl)hexanamide], the EC50 is 126 to 1000 nM.

Take `CC(=O)NCCN(CCCCSc1ccc(Cl)c(CNC2(c3cnccc3-c3ccccc3OC3CC3)CC2)c1)C(=O)[C@@H](O)[C@@H](O)[C@H](O)[C@@H](O)CO` [Compound I-563, (2S,3S,4R,5S)-N-[4-({4-chloro-3-[({1-[4-(2-cyclopropoxyphenyl)pyridin-3-yl]cyclopropyl}amino)methyl]phenyl}sulfanyl)butyl]-N-(2-acetamidoethyl)-2,3,4,5,6-pentahydroxyhexanamide]: the EC50 was 126 to 1000 nM.

For the compound `CC(=O)NCCN(CCCCSc1ccc(Cl)c(COC2(c3cnccc3-c3ccccc3OC3CC3)CC2)c1)C(=O)[C@@H](O)[C@@H](O)[C@H](O)[C@@H](O)CO` [Compound I-564, (2S,3S,4R,5S)-N-(4-{[4-chloro-3-({1-[4-(2-cyclopropoxyphenyl)pyridin-3-yl]cyclopropoxy}methyl)phenyl]sulfanyl}butyl)-N-(2-acetamidoethyl)-2,3,4,5,6-pentahydroxyhexanamide], the EC50 is less than 100 nM.

`O=C([C@@H](O)[C@@H](O)[C@H](O)[C@@H](O)CO)N(CCCSc1ccc(Cl)c(COC2(c3cnccc3-c3ccccc3OC3CC3)CC2)c1)C1CCOCC1` [Compound I-565, (2S,3S,4R,5S)-N-(3-{[4-chloro-3-({1-[4-(2-cyclopropoxyphenyl)pyridin-3-yl]cyclopropoxy}methyl)phenyl]sulfanyl}propyl)-2,3,4,5,6-pentahydroxy-N-(oxan-4-yl)hexanamide]: the EC50 was 126 to 1000 nM.

The values are drawn from patent publication US12084472B2 (Ardelyx, Inc., priority 2015, dated 2024).
